Data on 76 compounds can be found in PubChem BioAssay AID1552 (Sanford-Burnham Center for Chemical Genomics, 2009).

Each structure is given as a SMILES string. The source made the active and inactive calls. The rule behind the calls is not given here. Some results are limits rather than exact numbers.

By Kd is commonly meant the equilibrium constant for the complex coming apart.

The target in the experiment is Ubiquitin-conjugating enzyme E2 N (Homo sapiens) (UniProt P61088). Description: NMR detection of UBE2N ligand binding – biophysical, purified protein (AID 1552). The settings on record: NMR binding to purified UBE2N.
Chain of Ubiquitin-conjugating enzyme E2 N (Homo sapiens) (P61088 whole entry, looked up): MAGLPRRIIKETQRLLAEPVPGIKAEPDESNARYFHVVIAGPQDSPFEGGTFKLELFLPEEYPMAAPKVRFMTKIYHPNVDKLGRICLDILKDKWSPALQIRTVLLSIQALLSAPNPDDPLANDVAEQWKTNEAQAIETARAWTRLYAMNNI
Take `O=C1NC(=O)/C(=C\c2ccco2)S1`: the Kd is > 4 mM (inactive).

`Cc1nc(-c2cccc(-c3noc(C)n3)c2)no1`: the Kd is > 4 mM (inactive).

For `C(=N\c1ncn[nH]1)/c1cccs1`, the Kd is > 4 mM (inactive).

Regarding `O=C1CSC(=S)N1Cc1cccnc1`, the Kd is > 4 mM (inactive).

In the case of `O=C(O)c1cccc2c1OCCO2`, the Kd is > 4 mM (inactive).

On to `CC(=O)c1c(C)nc2ccccc2c1N`, for which the Kd is > 4 mM (inactive).

On to `Cc1cc(C(F)(F)F)nn1CC(N)=O`, for which the Kd is > 4 mM (inactive).

As for `COc1cc2c(cc1OC)C1=C(C#N)CCC(=O)N1CC2`, the Kd is > 4 mM (inactive).

On to `CS(=O)(=O)Nc1nnc(Cc2ccccc2)s1`, for which the Kd is > 4 mM (inactive).

For `COC(=O)C[C@H]1C(C)(C)C(=O)[C@@H]2CC3=C(CC[C@]4(C)C3=CC(=O)O[C@H]4c3ccoc3)C1(C)C2=O`, the Kd is > 4 mM (inactive).

For `Cc1occc(=O)c1O`, the Kd was > 4 mM (inactive).

Turning to `Nc1nc(-c2nc3ccccc3[nH]2)cs1`, the Kd was > 4 mM (inactive).

With `CNC(=O)N1CCN(C(=O)NC)CC1`, the Kd was > 4 mM (inactive).

As for `COc1ccc(N2C(=N)C(C)(C)NC2=O)cc1`, the Kd is > 4 mM (inactive).

In the case of `O=C(O)Cn1cnc2ccccc2c1=O`, the Kd was > 4 mM (inactive).

As for `Cc1cc(C(=O)N2CCN(c3ccccn3)CC2)c(C)o1`, the Kd was > 4 mM (inactive).

In the case of `Fc1cccc(Cl)c1CN1CCCNCC1`, the Kd is > 4 mM (inactive).

For `CCC[C@@H]1CCCCN1`, the Kd is > 4 mM (inactive).

Turning to `C=C(C)C1(O)OC(=O)C=C1OC` (stereo unspecified), the Kd is > 4 mM (inactive).

In the case of `CCOC(=O)C1CCN(Cc2ccccc2)CC1`, the Kd is > 4 mM (inactive).

On to `Cc1ccc(O)c(NC(=O)c2ccco2)c1`, for which the Kd was > 4 mM (inactive).

With `CC(=O)c1cc(C(N)=O)c(=S)[nH]c1C`, the Kd was > 4 mM (inactive).

As for `CC(C)=CCc1c(O)cc(C)oc1=O`, the Kd is > 4 mM (inactive).

Take `CC(C)=CCc1c2c(c3occ(-c4ccc(O)cc4)c(=O)c3c1O)C=CC(C)(C)O2`: the Kd was > 4 mM (inactive).

With `O=C(CSc1ncccn1)Nc1nccs1`, the Kd was > 4 mM (inactive).

For the compound `O=c1[nH]cc(Nc2ccccc2)c(=O)[nH]1`, the Kd was > 4 mM (inactive).

`O=C(Nc1ccccn1)c1cc(-n2cnnc2)ccc1Cl`: the Kd was > 4 mM (inactive).

For the compound `NCc1ccccc1N1CCOCC1`, the Kd was > 4 mM (inactive).

On to `Cc1ccc(/C=C/C(=O)O)cc1S(=O)(=O)NCCO`, for which the Kd was > 4 mM (inactive).

Consider `Cc1ccccc1NC(=O)/C=C\C(N)=O`, for which the Kd is > 4 mM (inactive).

For `NNc1ncnc2sccc12`, the Kd was > 4 mM (inactive).

`Oc1ccccc1-c1nnco1`: the Kd is > 4 mM (inactive).

Turning to `O=NN1C(=O)c2ccccc2C1=O`, the Kd was > 4 mM (inactive).

As to `CCOC(=O)CSCC(=O)Nc1nccs1`, the Kd is > 4 mM (inactive).

For `NC(=O)CSc1nnc(-c2ccncc2)o1`, the Kd was > 4 mM (inactive).

For `COc1ccc(/C=C2\SC(N)=NC2=O)cc1`, the Kd was > 4 mM (inactive).

In the case of `COc1cc(/C=C/C(=O)O)ccc1O`, the Kd is > 4 mM (inactive).

`C[C@@H]1OC(O[C@H]2[C@H](OC(=O)[C@]34CCC(C)(C)CC3C3=CCC5[C@@]6(C)CC[C@H](OC7O[C@@H](C)[C@H](O[C@@H]8OC[C@@H](O)[C@H](O)[C@H]8O)[C@@H](O)[C@H]7O)C(C)(C)C6CC[C@@]5(C)[C@]3(C)CC4O)OC[C@H](O)[C@H]2O)[C@H](O)[C@H](O)[C@H]1O[C@@H]1O[C@H](CO)[C@@H](O)[C@H](O)[C@H]1O` (stereo partly specified): the Kd is > 4 mM (inactive).

Turning to `Nc1cc(=O)[nH]c(SCC(=O)NC2CCCCC2)n1`, the Kd was > 4 mM (inactive).

On to `O=c1[nH]c(O)c(C=NC2CC2)c(=O)[nH]1`, for which the Kd is > 4 mM (inactive).

As for `O=c1ccc2ccc(O)cc2o1`, the Kd is > 4 mM (inactive).

As for `COc1cc(-c2csc(C)n2)ccc1O`, the Kd is > 4 mM (inactive).

On to `O=C(O)CN(CCCc1ccccc1)CC(=O)O`, for which the Kd was > 4 mM (inactive).

`NCc1ccc2c(c1)OCO2`: the Kd was > 4 mM (inactive).

On to `CCn1c(-c2ccccc2)n[nH]c1=S`, for which the Kd was > 4 mM (inactive).

Regarding `O=C(O)CCCc1nc2ccccc2s1`, the Kd was > 4 mM (inactive).

On to `NC(=O)NC1C=CS(=O)(=O)C1` (stereo unspecified), for which the Kd was > 4 mM (inactive).

In the case of `Nc1ccc2nsnc2c1`, the Kd is > 4 mM (inactive).

Regarding `Cc1nc(-c2cc(C(=O)O)no2)cs1`, the Kd is > 4 mM (inactive).

With `Cc1ccc(N2C(=O)CC(Sc3ncn[nH]3)C2=O)cc1` (stereo unspecified), the Kd is > 4 mM (inactive).

Consider `CC(=O)Oc1ccccc1N1C(=O)C=CC1=O`, for which the Kd was > 4 mM (inactive).

As for `CC(=O)c1ccc(NC(=O)c2ocnc2C)cc1`, the Kd was > 4 mM (inactive).

For `O=C(c1nc2ccccc2s1)N1CCSCC1`, the Kd was > 4 mM (inactive).

For `CN1C(=O)N(C)C2NC(=O)NC21` (stereo unspecified), the Kd was > 4 mM (inactive).

Turning to `CCC1(CC)C(=O)NC(=O)N=C1N`, the Kd was > 4 mM (inactive).

Turning to `Cc1ccc(S(=O)(=O)CC(=O)N2CCCC2)cc1`, the Kd was > 4 mM (inactive).

`Nc1nc(SCC(=O)c2ccc([N+](=O)[O-])cc2)n[nH]1`: the Kd is > 4 mM (inactive).

Consider `CC(C)c1ccc(NC(=O)C(N)=O)cc1`, for which the Kd is > 4 mM (inactive).

As for `O=C1O[C@H](C(O)CO)C(O)=C1O` (stereo partly specified), the Kd was > 4 mM (inactive).

As for `OC12CC3CC(CC(C3)C1)C2`, the Kd was > 4 mM (inactive).

In the case of `O=c1[nH]cnc2nn(-c3ccccc3)nc12`, the Kd is > 4 mM (inactive).

For the compound `O=C1CNC(=O)N1c1cccc(Cl)c1`, the Kd is > 4 mM (inactive).

As to `CN(C(=O)c1cc2cccnc2n(C)c1=O)c1ccccc1`, the Kd was > 4 mM (inactive).

For the compound `O=C(O)C1CNc2ccccc2O1` (stereo unspecified), the Kd is > 4 mM (inactive).

Turning to `CC(=O)Oc1cc(OC(C)=O)c2c(c1)O[C@H](c1ccc(OC(C)=O)c(OC(C)=O)c1)[C@H](OC(C)=O)C2`, the Kd is > 4 mM (inactive).

`O=C(Nc1ccon1)c1csc2ccccc12`: the Kd was > 4 mM (inactive).

As to `O=C1CCC(=O)N1c1nc2ccccc2s1`, the Kd was > 4 mM (inactive).

As for `NCc1ccc(-c2csnn2)cc1`, the Kd is > 4 mM (inactive).

Regarding `O=c1cnnc(N2CCCCC2)[nH]1`, the Kd was > 4 mM (inactive).

`NS(=O)(=O)c1ccc(NC(=S)NC2CC2)cc1`: the Kd is > 4 mM (inactive).

As for `CN1CCN(CC(=O)NC2CCCCC2)CC1`, the Kd was > 4 mM (inactive).

On to `Cc1cc(C(=O)Nc2sc(C)c(C)c2C#N)no1`, for which the Kd was > 4 mM (inactive).

Turning to `CC(C)NC(=O)Cc1c(O)c2ccccc2[nH]c1=O`, the Kd is > 4 mM (inactive).

`CC(=O)Nc1ccc2c(c1)CCCC2=O`: the Kd is > 4 mM (inactive).

As to `CC1CN(Cc2ccccn2)CCC1=O` (stereo unspecified), the Kd was > 4 mM (inactive).

With `NC(=O)c1ccc(Cl)c(N2C(=O)CCC2=O)c1`, the Kd is > 4 mM (inactive).
